Assay results from patent US12421225B2, “Heteroaromatic amide derivative and medicament containing the same” (KAKEN PHARMACEUTICAL CO., LTD., priority 2018, dated 2025).
pIC50: −log10 of the molar value.

Columns and labels:
[1] = molecular target: human Nav1.7 (Homo sapiens (Human), UniProt Q15858); assay: Human Nav1.7 inhibitory activity evaluation (automated patch clamp QPatch16X, HEK293A cells stably expressing human Nav1.7 and human Navβ1); format: cell-based
Method in brief: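 QPatch16X whole-cell recordings at room temperature from HEK293A cells stably expressing human Nav1.7 with Navβ1, CsF-based internal solution, pH 7.4 external, 0.1% DMSO. From −100 mV holding, protocol included a 15 s hold at a potential inactivating ~30-40% of channels; IC50 from inward current at the second −10 mV pulse.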

[2] = molecular target: human Nav1.5 (Homo sapiens (Human), UniProt Q14524); assay: Human Nav1.5 inhibitory activity evaluation (automated patch clamp QPatch16X, HEK293 cells stably expressing human Nav1.5); format: cell-based
Method in brief: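 Whole-cell automated patch clamp at room temperature on HEK293 stably expressing human Nav1.5; holding −80 mV, 20 consecutive cardiomyocyte action-potential-like test pulses before and after compound (0.1% DMSO). Inhibition measured on inward current at 20th pulse; IC50 from concentration-response curve.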

[3] = test system: male ICR mice; assay: Effect on acute pain (capsaicin-induced pain-related behavior, hind paw); format: in vivo
Experimental: Test Example 3: Effect on Acute Pain
Six-week old male ICR mice were used for the test. Test compounds were orally administered at 1-10 mg/kg and the mice were habituated to a clear observation cage for 60 minutes. The mice were lightly restrained under no anesthesia and 20 μL of 80 μg/mL (0.8% ethanol-saline) capsaicin solution was injected subcutaneously into the plantar surface of rihgt hind paw of mice. The mice were returned to the observation cage and, from just after that, the duration of pain-related behavior (licking, shaking) occurring in the right hind limb was measured as the reaction time for 5 minutes.
The inhibition rate of the test compound was determined by the following calculation formula. Test compound inhibition rate (%)=100×[1−(response time of test compound administered group/response time of vehicle control group)]

[4] = test system: male ICR mice; assay: Effect on a neuropathic pain (L5 spinal nerve cut, von Frey 50% pain threshold); format: in vivo; conditions: allodynia-developed mice, dose of 10 mg/kg or less, single oral administration
Experimental: Test Example 4: Effect on a Neuropathic Pain
Five-week old male ICR mice were used for the test. The skin and muscles were incised to expose the sixth lumbar vertebra under isoflurane anesthesia, and the right transverse process was removed. The L5 spinal nerve was isolated from the surrounding tissue to cut out, and then the incision site was sutured.
The 50% pain threshold of the plantar surface was determined by referring to the method of Chaplan S R et al. (J Neurosci Methods 1994, 53: 55-63) using von Frey filaments (0.008 g, 0.02 g, 0.04 g, 0.07 g, 0.16 g, 0.4 g and 0.6 g). First, the mice were placed in a measurement case with a lattice scaffold and habituatedd until the animal settled; 0.07 g of filament was pressed against the plantar surface for about 3 seconds. If withdrawal behavior was observed, the filament with the stimulation intensity one level lower was used to apply stimulation, and conversely, if the withdrawal behavior was not detected, the filament with the stimulation intensity one level higher was used to apply stimulation. By repeating this operation, starting from 2 times before and after the presence or absence of escape behavior changed, the results for a total of 6 times were recorded, to calculate a 50% pain threshold using the following calculation formula. 50% pain threshold (g)=(10^[Xf+κδ]/10000)
Xf is the value of the stimulus intensity of the filament used in the last stimulation (log value), κ is the value derived from the pattern of presence/absence of withdrawal behavior for 6 times, and δ is the difference in stimulus intensity (log value) between the filaments used (here 0.365).

[5] = HEK293A cells stably expressing human Nav1.7 and human Navβ1, automated patch clamp QPatch16X
[6] = HEK293 cells stably expressing human Nav1.5, automated patch clamp QPatch16X

Chain of human Nav1.5 (Q14524 whole entry): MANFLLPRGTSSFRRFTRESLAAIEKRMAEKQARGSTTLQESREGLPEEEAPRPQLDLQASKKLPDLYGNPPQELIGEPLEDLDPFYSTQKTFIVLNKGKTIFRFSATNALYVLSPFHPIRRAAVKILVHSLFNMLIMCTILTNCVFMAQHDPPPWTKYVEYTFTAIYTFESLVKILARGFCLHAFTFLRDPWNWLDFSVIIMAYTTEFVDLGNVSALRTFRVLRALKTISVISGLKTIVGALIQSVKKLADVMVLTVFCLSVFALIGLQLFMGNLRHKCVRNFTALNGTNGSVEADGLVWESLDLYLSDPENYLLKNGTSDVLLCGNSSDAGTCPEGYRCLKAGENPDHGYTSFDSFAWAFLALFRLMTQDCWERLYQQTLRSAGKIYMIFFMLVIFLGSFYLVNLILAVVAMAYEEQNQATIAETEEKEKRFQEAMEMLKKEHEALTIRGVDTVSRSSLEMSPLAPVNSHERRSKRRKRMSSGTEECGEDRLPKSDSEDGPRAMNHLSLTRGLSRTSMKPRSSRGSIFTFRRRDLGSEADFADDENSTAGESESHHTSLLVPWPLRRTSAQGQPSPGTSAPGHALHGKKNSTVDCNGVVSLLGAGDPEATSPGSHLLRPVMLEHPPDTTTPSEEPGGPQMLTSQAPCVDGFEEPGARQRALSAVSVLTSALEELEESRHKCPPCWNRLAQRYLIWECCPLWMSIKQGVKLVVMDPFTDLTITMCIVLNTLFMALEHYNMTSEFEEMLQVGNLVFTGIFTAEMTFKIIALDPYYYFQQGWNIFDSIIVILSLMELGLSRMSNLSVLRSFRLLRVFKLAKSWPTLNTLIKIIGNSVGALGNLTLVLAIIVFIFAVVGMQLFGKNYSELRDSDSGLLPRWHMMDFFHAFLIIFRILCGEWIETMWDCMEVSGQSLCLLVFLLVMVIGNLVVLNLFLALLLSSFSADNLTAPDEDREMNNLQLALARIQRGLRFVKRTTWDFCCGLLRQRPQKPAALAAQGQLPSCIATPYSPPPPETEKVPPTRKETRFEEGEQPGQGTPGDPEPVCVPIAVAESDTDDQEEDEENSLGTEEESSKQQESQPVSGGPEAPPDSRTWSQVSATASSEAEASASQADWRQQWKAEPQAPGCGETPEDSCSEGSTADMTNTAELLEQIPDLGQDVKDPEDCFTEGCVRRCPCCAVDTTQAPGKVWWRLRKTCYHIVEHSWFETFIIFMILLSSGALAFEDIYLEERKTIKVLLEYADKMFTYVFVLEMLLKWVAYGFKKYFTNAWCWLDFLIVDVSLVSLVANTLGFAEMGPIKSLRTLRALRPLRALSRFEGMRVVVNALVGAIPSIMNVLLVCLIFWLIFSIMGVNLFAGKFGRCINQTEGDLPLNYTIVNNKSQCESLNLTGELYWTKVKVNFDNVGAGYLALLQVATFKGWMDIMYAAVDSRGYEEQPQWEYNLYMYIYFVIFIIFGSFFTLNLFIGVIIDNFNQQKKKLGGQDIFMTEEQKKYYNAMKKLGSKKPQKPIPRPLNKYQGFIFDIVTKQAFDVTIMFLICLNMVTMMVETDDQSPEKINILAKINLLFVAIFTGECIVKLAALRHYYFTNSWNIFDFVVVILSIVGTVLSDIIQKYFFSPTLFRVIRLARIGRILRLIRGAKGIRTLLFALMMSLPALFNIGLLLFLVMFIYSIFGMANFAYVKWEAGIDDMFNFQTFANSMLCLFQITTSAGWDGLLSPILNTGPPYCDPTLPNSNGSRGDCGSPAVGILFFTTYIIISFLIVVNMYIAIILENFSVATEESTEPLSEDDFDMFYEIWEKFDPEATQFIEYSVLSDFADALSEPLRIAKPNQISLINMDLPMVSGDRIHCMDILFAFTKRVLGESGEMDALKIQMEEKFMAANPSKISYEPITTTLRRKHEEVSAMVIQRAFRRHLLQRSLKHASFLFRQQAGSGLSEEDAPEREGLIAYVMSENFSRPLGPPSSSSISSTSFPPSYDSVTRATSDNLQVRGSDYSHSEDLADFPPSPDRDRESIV
Chain of human Nav1.7 (Q15858 whole entry): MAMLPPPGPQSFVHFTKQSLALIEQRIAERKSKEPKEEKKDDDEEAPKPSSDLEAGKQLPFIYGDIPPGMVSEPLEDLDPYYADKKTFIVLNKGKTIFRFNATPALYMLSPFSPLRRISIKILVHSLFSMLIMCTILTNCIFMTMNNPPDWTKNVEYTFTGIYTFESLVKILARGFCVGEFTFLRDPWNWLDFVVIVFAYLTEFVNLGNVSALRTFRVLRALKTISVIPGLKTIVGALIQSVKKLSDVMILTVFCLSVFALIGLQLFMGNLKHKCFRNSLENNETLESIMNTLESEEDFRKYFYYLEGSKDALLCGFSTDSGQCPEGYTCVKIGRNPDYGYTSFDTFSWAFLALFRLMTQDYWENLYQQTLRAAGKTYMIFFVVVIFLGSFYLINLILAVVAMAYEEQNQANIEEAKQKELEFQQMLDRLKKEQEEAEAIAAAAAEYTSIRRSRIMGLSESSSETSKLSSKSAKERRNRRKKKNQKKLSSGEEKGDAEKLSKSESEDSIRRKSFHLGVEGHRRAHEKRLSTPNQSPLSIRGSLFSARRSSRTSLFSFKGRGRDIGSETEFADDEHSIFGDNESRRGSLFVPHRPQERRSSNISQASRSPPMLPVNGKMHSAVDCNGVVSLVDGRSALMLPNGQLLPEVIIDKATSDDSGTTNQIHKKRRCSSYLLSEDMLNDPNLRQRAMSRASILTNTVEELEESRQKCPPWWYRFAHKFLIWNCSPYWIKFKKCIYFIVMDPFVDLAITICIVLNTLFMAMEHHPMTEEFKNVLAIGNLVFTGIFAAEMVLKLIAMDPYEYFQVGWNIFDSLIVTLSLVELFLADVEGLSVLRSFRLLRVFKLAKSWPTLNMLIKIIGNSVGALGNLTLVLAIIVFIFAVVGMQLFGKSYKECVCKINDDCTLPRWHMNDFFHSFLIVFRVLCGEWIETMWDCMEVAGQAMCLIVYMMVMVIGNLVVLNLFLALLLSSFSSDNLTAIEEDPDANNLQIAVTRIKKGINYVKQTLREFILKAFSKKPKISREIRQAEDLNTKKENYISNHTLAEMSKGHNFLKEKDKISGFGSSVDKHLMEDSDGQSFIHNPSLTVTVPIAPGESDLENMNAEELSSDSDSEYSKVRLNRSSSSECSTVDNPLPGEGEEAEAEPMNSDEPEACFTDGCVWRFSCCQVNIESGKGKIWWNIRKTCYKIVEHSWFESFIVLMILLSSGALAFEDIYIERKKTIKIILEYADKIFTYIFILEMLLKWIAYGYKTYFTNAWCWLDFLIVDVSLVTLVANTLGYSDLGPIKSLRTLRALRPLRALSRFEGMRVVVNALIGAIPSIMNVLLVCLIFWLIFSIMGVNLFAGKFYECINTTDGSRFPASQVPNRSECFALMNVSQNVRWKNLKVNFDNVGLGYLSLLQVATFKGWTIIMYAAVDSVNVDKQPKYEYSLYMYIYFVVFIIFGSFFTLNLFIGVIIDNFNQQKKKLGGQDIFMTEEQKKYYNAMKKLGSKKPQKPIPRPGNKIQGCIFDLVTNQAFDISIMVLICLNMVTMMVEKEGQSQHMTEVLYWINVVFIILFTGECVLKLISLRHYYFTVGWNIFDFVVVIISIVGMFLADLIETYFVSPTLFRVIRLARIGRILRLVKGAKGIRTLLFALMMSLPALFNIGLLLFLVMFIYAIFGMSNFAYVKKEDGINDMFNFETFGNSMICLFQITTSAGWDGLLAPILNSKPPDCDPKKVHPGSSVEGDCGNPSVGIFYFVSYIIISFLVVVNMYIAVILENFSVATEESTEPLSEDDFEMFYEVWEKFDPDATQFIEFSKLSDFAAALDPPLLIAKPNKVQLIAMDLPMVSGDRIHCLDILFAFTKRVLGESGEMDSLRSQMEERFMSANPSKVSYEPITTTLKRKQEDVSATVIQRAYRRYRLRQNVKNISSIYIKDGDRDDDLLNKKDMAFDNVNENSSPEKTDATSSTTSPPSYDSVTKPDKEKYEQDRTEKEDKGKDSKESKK
Chain of human Nav1.7 (Q07699 19-218 partner): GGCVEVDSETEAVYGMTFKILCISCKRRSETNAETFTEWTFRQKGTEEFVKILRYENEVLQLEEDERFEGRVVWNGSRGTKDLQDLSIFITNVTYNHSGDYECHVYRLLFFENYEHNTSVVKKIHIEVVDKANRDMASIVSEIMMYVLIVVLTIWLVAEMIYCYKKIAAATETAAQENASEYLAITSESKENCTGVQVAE

Row | pIC50 [1, 5] | pIC50 ([1]; human Nav1.7, automated patch clamp) | Compound | pIC50 [2, 6] | Inhibition rate (%) [3] | 50% pain threshold (antiallodynic effect) [4] | pIC50 ([2]; human Nav1.5, automated patch clamp)
1 | > 6.00 |  | N#Cc1ccc2c(c1)C[C@@H](NC(=O)c1cc3n(n1)CCC(COCC1CC1)O3)CO2 (single isomer, unassigned) [103 (isomer A)] | ≤ 5.52 | A (Compounds with an inhibition rate of 30% or more are indicated by the letter “A”) | increased the 50% pain threshold | 
2 | > 6.00 |  | N#Cc1ccc2c(c1)C[C@@H](NC(=O)c1cc3n(n1)CCC(COC(F)(F)F)O3)CO2 (single isomer, unassigned) [134 (isomer A)] | 5.52 to 6.00 | A (Compounds with an inhibition rate of 30% or more are indicated by the letter “A”) | increased the 50% pain threshold | 
3 |  | > 6.00 | O=C(N[C@H]1COc2ccc(C(F)(F)F)cc2C1)c1cc2n(n1)CCC(C(F)F)O2 (single isomer, unassigned) [161 (isomer A)] |  | A (Compounds with an inhibition rate of 30% or more are indicated by the letter “A”) | increased the 50% pain threshold | ≤ 5.52
4 | > 6.00 |  | N#Cc1ccc2c(c1)C[C@@H](NC(=O)c1cc3n(n1)CCC(c1ccccc1F)O3)CO2 (stereo partly drawn) [Example 70, N—((R)-6-cyanochroman-3-yl)-5-(2-fluorophenyl)-6,7-dihydro-5H-pyrazolo[5,1-b][1,3]oxazine-2-carboxamide] | 5.52 to 6.00 | A (Compounds with an inhibition rate of 30% or more are indicated by the letter “A”) | increased the 50% pain threshold | 
